Reference: US10590413B2, “Chiral control” (WAVE LIFE SCIENCES LTD., priority 2012, dated 2020)
Like-named read-outs stand apart in the source and are kept apart here. Strand notation (5' to 3'): a small letter for the sugar, then the base; units joined by * are phosphorothioate-linked, units joined directly phosphodiester-linked; [ ] holds rarer units or linkages, { } end groups; capitals alone tell only the bases. d = 2'-deoxy (DNA)

Assays:
[1] = test system: ODN-induced cytokine expression; conditions: ELISA on supernatants from DBA/2 spleen cells, 2 × 10^7 cells/ml, 24 hr, ODN at 30 μg/ml; cited from earlier work
[2] = test system: TNF-α and IL-12 expression; conditions: cell line 3774, no activator, inhibitor at head concentration: Bafilomycin 250 nM, Chloroquine 2.5 μg/ml, Monensin 10 μM, cited from earlier work; for TNF-α, activator: Medium (inhibitor alone): NAC 50 mM, TPCK 50 μM, Gliotoxin 0.1 μg/ml, Bisgliotoxin 0.1 μg/ml, medium alone 37; for IL-12, activator: Medium (inhibitor alone): medium alone 147
[3] = test system: CpG-induced cytokine secretion; conditions: RALB/c spleen cells, 24 hr, ELISA, cited from earlier work; for IL-12 secretion: 2 × 10^7 cells/ml, indicated ODN alone; for CpG-S-induced IL-12 secretion: IL-12 secretion induced by addition of CpG ODN 1619 at 30 μg/ml
(Ap)9A = conditions: duplex with (Ap)9A; cited from earlier work
NK LU = conditions: PBMC, phosphorothioate ODN, cited from earlier work
Murine IL-6 secretion = conditions: cited from earlier work
NK Lytic Activity = conditions: cited from earlier work
[4] = test system: human B cell proliferation; conditions: human spleen cells or PBNC, ODN at 6 μml, 4-7 days, 3H thymidine, cited from earlier work
[5] = test system: Mouse Apolipoprotein B/GAPDH mRNA; experiment: Apolipoprotein B mRNA assay in transfected mouse primary hepatocytes (Example 88); type: cell-based
Procedure: C57BL6 male mice, 7 weeks of age were used to extract and plate mouse primary hepatocytes in 96-well plates (without overlay) (Celsis/Bioreclamation IVT). Transfection of primary hepatocytes was carried out with lipofectin (Life Technologies, cat. No. 18292-037) using the manufacturer's protocol, using 0.5 ul of Lipofectin per 96-plate well. Twelve, 1:3 siRNA duplex dilutions were created starting at 6 uM. 10 ul of 10× oligo was then lipoplexed with a prepared mixture of 9.5 ul of In vitro Gro HI Medium (Celsis Cat. Z99009) serum-free medium and 0.5 ul of Lipofectin per well. After a 10-15 minute incubation, 20 ul of lipoplexed oligo was added to primary hepatocytes in 80 ul of In vitro Gro HI Medium to bring the final volume to 100 ul per well. 24 hours after transfection, cells were lysed.
Total mRNA was purified from cell lysates using MagMAX™-96 Total RNA Isolation Kit (Life Technologies, AM1830); 15 ul of cDNA was synthesized with High Capacity cDNA Reverse Transcription Kit with RNase Inhibitor (Life Technologies, 4374967). Gene expression was evaluated by Real-Time PCR on a Lightcycler 480 (Roche) using a Probes Master Mix (Roche, 04 707 494 001) according to manufacturer's protocol using the following primers: Mouse apolipoprotein B primers:
[Template: (GenBank Accession Number M35186)]
The delta delta Ct method was used to calculate values. […]

B cell proliferation = B cell proliferation induced by a stimulatory CpG motif; oligonucleotide added alone or with inhibitory ODN 1735; cited from earlier work
T cell proliferation = conditions: US 6,218,371 Table 3; cited from earlier work
CD40 = conditions: US 6,218,371 Table 3; cited from earlier work
CD86 = conditions: US 6,218,371 Table 3; cited from earlier work
[6] = expt. 1 (one donor), US 6,214,806 Table 5
[7] = expt. 1, cells alone 0.00, US 6,239,116 Table 11
[8] = T cell depleted spleen cells from DBA/2 mice, phosphodiester O-ODN 20 μM, 24 hr, mean ± SD of triplicates

1952 (DNA TCCATGTCGTTCCGCGCGCG; chemistry not given here) [Oligonucleotide 1952]
ODN-induced cytokine expression IFN-γ [1]: 2135 pg/mL | ODN-induced cytokine expression IL-6 [1]: 559 pg/mL | ODN-induced cytokine expression IL-12 [1]: 1615 pg/mL

Bafilomycin
TNF-α, activator: Medium (inhibitor alone) [2]: 46 pg/mL | IL-12, activator: Medium (inhibitor alone) [2]: 102 pg/mL

1895 (DNA GCGCGCGCGCGCGCGCGCGC; chemistry not given here) [Oligonucleotide 1895]
IL-12 secretion [3]: 123 pg/mL | CpG-S-induced IL-12 secretion [3]: 2719 pg/mL

1896 (DNA CCGGCCGGCCGGCCGGCCGG; chemistry not given here) [Oligonucleotide 1896]
IL-12 secretion [3]: 292 pg/mL | CpG-S-induced IL-12 secretion [3]: 2740 pg/mL

CC(=O)N[C@@H](CS)C(=O)O [NAC]
TNF-α, activator: Medium (inhibitor alone) [2]: 10 pg/mL

(Rp)-(Ups)9U
Tm value of duplex compared with natural-(Up)9U/(Ap)9A ((Ap)9A): higher Tm value

CCN(CC)CCCC(C)Nc1ccnc2cc(Cl)ccc12 (centres unmarked) [Chloroquine, chloroquine, reference compound]
TNF-α, activator: Medium (inhibitor alone) [2]: 27 pg/mL | IL-12, activator: Medium (inhibitor alone) [2]: 20 pg/mL

Cc1ccc(S(=O)(=O)N[C@@H](Cc2ccccc2)C(=O)CCl)cc1 [TPCK]
TNF-α, activator: Medium (inhibitor alone) [2]: 24 pg/mL

19792 (DNA TCCATGTCGTTCCTGTCGTT; phosphorothioate, Z modified cytosine, chemistry not fully specified) [Oligonucleotide 19792]
NK LU, expt. 1 (NK LU; [6]): 1.32 LU

CC[C@@]1([C@@H]2O[C@@H]([C@H]3O[C@@](O)(CO)[C@H](C)C[C@@H]3C)C[C@@H]2C)CC[C@H]([C@]2(C)CC[C@]3(C[C@H](O)[C@@H](C)[C@@H]([C@@H](C)[C@@H](OC)[C@H](C)C(=O)O)O3)O2)O1 [Monensin]
TNF-α, activator: Medium (inhibitor alone) [2]: 22 pg/mL | IL-12, activator: Medium (inhibitor alone) [2]: 73 pg/mL

1991 (DNA dT*dC*dC*dA*dT*dG*dC*dG*dT*dT*dG*dC*dG*dT*dT*dG*dC*dG*dT*dT) [Oligonucleotide 1991]
NK LU, expt. 1 (NK LU; [6]): 0.89 LU | NK LU, expt. 1 (NK LU; [7]): 0.89 LU

CN1C(=O)[C@]23CC4=CC=C[C@H](O)[C@H]4N2C(=O)[C@@]1(CO)SS3 [Gliotoxin]
TNF-α, activator: Medium (inhibitor alone) [2]: 17 pg/mL

5d (DNA ATGGAAGGTCCAGTGTTCTC; chemistry not given here) [Oligonucleotide 5d]
IL-6 (Murine IL-6 secretion; [8]): ≤10 pg/mL | IL-6 (Murine IL-6 secretion; murine IL-6 secretion): ≤10 pg/mL

1841 (DNA TCCATAGCGTTCCTAGCGTT; chemistry not given here) [Oligonucleotide 1841]
NK Lytic Activity (LU) (NK Lytic Activity; human PBMC cultured with ODN 6 μg/ml for 24 hr, lysis of 51Cr-labeled K562 cells): 1.45 LU | LU (NK lytic activity) (NK Lytic Activity; human PBMC, ODN 6 μg/ml for 24 hr, lysis of Cr-labeled K562 cells, cells alone 0.01): 1.45 LU | Stimulation Index, expt. 1 ([4]; US 6,214,806 Table 6): 3 | Stimulation Index, expt. 1 ([4]; US 6,239,116 Table 12): 3

1959 (DNA GCGGCGGGCGGCGCGCGCCC; chemistry not given here) [Oligonucleotide 1959]
IL-12 secretion [3]: 270 pg/mL | CpG-S-induced IL-12 secretion [3]: 2539 pg/mL

1990 (DNA dT*dC*dC*dA*dT*dG*dC*dG*dT*dG*dC*dG*dT*dG*dC*dG*dT*dT*dT*dT) [Oligonucleotide 1990]
NK LU, expt. 1 (NK LU; [6]): 2.10 LU | NK LU, expt. 1 (NK LU; [7]): 2.10 LU

(All(Rp))-GsTs5mCs5mCs5mCsTsGsAsAsGsAsTsGsTs5mCsAsAsTsGs5mC (DNA GTCCCTGAAGATGTCAATGC; chemistry not fully specified) [ONT-82]
IC50 ([5]; relative IC50, bottom 0 and top 100 constrained, read-out: IC50 for Suppression of Mouse Apolipoprotein B/GAPDH mRNA Levels): 64.4 nM | Hill Slope ([5]; suppression of ApoB/GAPDH mRNA, bottom 0 and top 100 constrained): −0.3

1963 (DNA TCCTTGTCGTTCCTGTCGTT; DNA, all phosphorothioate, methylation of C not given here) [Oligonucleotide 1963]
NK LU, expt. 1 (NK LU; [6]): 3.42 LU | NK LU, expt. 1 (NK LU; [7]): 3.42 LU | Stimulation Index, expt. 1 ([4]; US 6,214,806 Table 6): 3 | Stimulation Index, expt. 1 ([4]; US 6,239,116 Table 12): 3

5f (DNA ATCGACTCTCGAGCGTTCTC; Z-modified nucleotides, chemistry not fully specified) [Oligonucleotide 5f]
IL-6 (Murine IL-6 secretion; [8]): ≤10 pg/mL | IL-6 (Murine IL-6 secretion; murine IL-6 secretion): ≤10 pg/mL

(Sp)-(Ups)9U
Tm value of duplex compared with natural-(Up)9U/(Ap)9A ((Ap)9A): did not form a duplex

2037 (DNA TCCATGCCGTTCCTGCCGTT; chemistry not given here) [Oligonucleotide 2037]
IL-12 secretion [3]: 423 pg/mL | CpG-S-induced IL-12 secretion [3]: 2847 pg/mL

1720 (DNA 1720 (TCCATGAGCTTCCTGATGCT); as printed in the source, key not given here) [Oligonucleotide 1720]
cpm (B cell proliferation) (B cell proliferation): 601 cpm

GM-CSF
T cell proliferation (T cell proliferation): 13.3 | CD40 (4 Exp.) (CD40): 2.5 | CD86 (5 Exp) (CD86): 1.9

1966 (DNA dT*dC*dG*dT*dC*dG*dC*dT*dG*dT*dC*dT*dC*dC*dG*dC*dT*dT*dC*dT*dT) [Oligonucleotide 1966]
NK LU, expt. 1 (NK LU; [6]): 2.62 LU | NK LU, expt. 1 (NK LU; [7]): 2.62 LU

1953 (DNA TCCATGTCGTTCCTGCCGCT; chemistry not given here) [Oligonucleotide 1953]
ODN-induced cytokine expression IFN-γ [1]: 2000 pg/mL | ODN-induced cytokine expression IL-6 [1]: 557 pg/mL | ODN-induced cytokine expression IL-12 [1]: 1854 pg/mL
